From patent publication US8557823B2, “Family of PFKFB3 inhibitors with anti-neoplastic activities” (Advanced Cancer Therapeutics, LLC, priority 2007, dated 2013) come the findings set out here.

A short description of series [1]: Solubility in dosing solution Cre:EtOH:Saline. In kind it is physicochemical. Particulars: Cremophor:EtOH:Saline 5:5:90, aqueous with cosolvent or surfactant or cyclodextrin, kinetic from dmso stock; 5:5:90 Cremophor:EtOH:Saline, after 24 hours at room temperature. The source says:
(§1) Chemical properties of the compounds of the invention were investigated, mainly the solubility in several solvents and pharmaceutically accepted excipients or dosing solutions and the stability of these solutions. […] The increase in solubility when comparing the effect of chemical substituents is unpredictable and surprising if one compares the solubility values of PFK-070 to PFK-091 and PFK-070 to PFK-141 and 145 in a dosing solution that could be used to treat cancer patients (See Table 8A below). Briefly, selected compounds of the invention are dissolved in a small volume of the solvents/excipients of interest (Cremophor, or Cremophor:etoh or Tween80:etoh) at room temperature and diluted 1:9 in saline and left at room temperature for over 8 or 24 hours. Both the physical (absence of a precipitate) and the chemical stability (less than 5% degradation) of the solutions are measured (observation and HPLC after filtration).

Series [2] addresses T1, PFKFB3, the recombinant protein (Homo sapiens, UniProt Q16875).
T1 construct: made in house; host or cells: E. coli
Description: Inhibition of recombinant PFKFB3 (Adapta Kinase assay). Type of series: biochemical. The conditions noted are these: read-out: IC50 EArec. Here is the method: PFKFB3 was prepared by expression in E. coli and purified by GST column and column chromatography. […] The recombinant protein was pure and active as determined by the results of a kinase activity assay commercially available (Adapta® Kinase assay).

A short description of series [3]: Microsomal stability in human liver microsomes. In kind it is in vitro ADME. The conditions noted are these: 0 min. Here is the method: Microsomal stability in vitro in different biologic media (liver microsomes, S9 fraction, hepatocytes) and species is ascertained to evaluate the rate at which a compound undergoes metabolism in the experimental in vitro conditions. […] Experimental conditions are briefly described here: the stability in human liver microsomes of several compounds was done over […] at 37° C. using pooled mixed gender human liver microsomes. These liver microsomes were prepared at 1.0 mg/ml of microsomal protein in a 100 mM potassium phosphate pH 7.4 buffer with 1 mM NADPH. The media was incubated at 37° C. with the compound in solution in DMSO. The concentration of the compound was followed by LC/MS-MS as a function of time. […] Testosterone was used as a positive control. The same experiment was performed with mouse, rat or dog liver microsomes instead of human liver microsomes.

The test system of the next series is NCI-H1437. Description: Cancer cell proliferation, Alamar Blue assay 72 hours, NCI-H1437. In kind it is cell-based. Particulars: Homo sapiens. How it is done:
(§2) The ability of the compounds described herein to kill or inhibit the proliferation of cancer cells was measured using either the MTT assay, the Alamar Blue assay, or the Cell Titer Glow® assay using 48 or 72 hours exposure. […] The procedures are briefly described below. Cells of the desired tumor cell line were plated at 2×10^5 cells/ml in 96 well plates. Twice the indicated concentrations of the compounds of the invention were added to cells the following day in an equal volume of media. 72 hours later, cells were lysed and subjected to ATP determination using the CellTiter Glo-Luminescent Cell Viability Assay kit (Promega, Madison, Wis.). Experiments were done in triplicate. When using the MTT assay or the Alamar blue assay, the experimental conditions are essentially similar; at the end of the incubation period, 20 microl of the MTT solution is added per well and the samples are incubated for an additional four hours, rinsed and the absorbance at 570 nm measured. Results for the inhibition of cells proliferation are reported as IC50 as commonly done (the concentration leading to a 50% inhibition of proliferation of the cell population) and are listed in the Tables below. Table 4 lists the IC50 for the compounds of the invention in several cell lines including Jurkat, Calu-6, NCI-H82, U937, or NCI-H1437 cancer cell lines. Table 5 lists the IC50 of PFK-070 in a panel of 10 cell lines.
(In general: Alamar Blue is a resazurin reagent that responds to reducing activity.)

For another series, the system named is NCI-H82. Description: Cancer cell proliferation, Alamar Blue assay 72 hours, NCI-H82. In kind it is cell-based. The conditions noted are these: Homo sapiens. Here is the method:
as §2

Another series relates to Jurkat. The experiment in a line: Cancer cell proliferation, Alamar Blue assay 72 hours, Jurkat. Type of series: cell-based. Particulars: Homo sapiens, Jurkat, 72 h. How it is done: as §2
A short description of series [4]: Solubility profile in aqueous media. Type of series: physicochemical. Particulars: 23 °C, aqueous buffer.
The nature of series [5]: Solution stability in clear and amber vials. Type of series: physicochemical. The conditions noted are these: Cre:EtOH:Saline.
Source text: as §1
Furthermore, the solution stability of the compounds was investigated and it was discovered that, in normal conditions, they lack the appropriate solution stability as they undergo a rapid photoisomerization; this lack of solution stability is such that methods to prevent these compounds from reacting in solutions are necessary if these compounds are to be used as chemotherapeutic agents for the treatment of cancer patients.

The test system of another series is Calu-6. The experiment in a line: Cancer cell proliferation, Alamar Blue assay 72 hours, Calu-6. In kind it is cell-based. Particulars: Homo sapiens. Here is the method: as §2
A further series deals with U937. Description: Cancer cell proliferation, Alamar Blue assay 72 hours, U937. Particulars: Homo sapiens, U-937. Type of series: cell-based. How it is done: as §2

Molecules are shown by their SMILES. Converted amounts (≈) assume the structure as drawn. Counter-ions that a name gives are not always drawn.

Broadly, the solubility is how much of the substance goes into solution per volume. For orientation: IC50 means the concentration that inhibits the measured activity by half.

T1 sequence (Q16875 whole entry): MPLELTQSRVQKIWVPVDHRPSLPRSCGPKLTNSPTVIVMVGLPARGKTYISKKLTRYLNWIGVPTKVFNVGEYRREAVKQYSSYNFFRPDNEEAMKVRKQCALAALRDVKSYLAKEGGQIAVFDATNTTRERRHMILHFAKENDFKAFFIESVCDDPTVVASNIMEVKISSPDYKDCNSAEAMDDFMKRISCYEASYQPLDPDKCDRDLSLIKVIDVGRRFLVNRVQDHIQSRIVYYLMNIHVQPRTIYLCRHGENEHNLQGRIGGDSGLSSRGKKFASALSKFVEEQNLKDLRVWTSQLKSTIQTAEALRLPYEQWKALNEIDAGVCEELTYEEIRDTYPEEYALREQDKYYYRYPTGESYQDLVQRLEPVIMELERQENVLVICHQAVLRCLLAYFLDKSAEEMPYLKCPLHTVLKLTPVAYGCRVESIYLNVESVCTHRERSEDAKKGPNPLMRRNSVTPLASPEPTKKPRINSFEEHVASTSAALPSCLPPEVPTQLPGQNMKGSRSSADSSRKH

Compound `O=C(/C=C/c1ccc2cc(O)ccc2n1)c1ccncc1` [ACT-PFK-149, 3-(6-Hydroxy-quinolin-2-yl)-1-pyridin-4-yl-propenone] displayed a solubility at 24 h in series [1] of 300 µg/mL (≈ 1090 µM). In [2], the IC50 turned out to be 811 ± 266 nM.
Regarding `Cc1ccc2ccc(/C=C/C(=O)c3ccncc3)nc2c1` [ACT-PFK-154, 3-(7-Methyl-quinolin-2-yl)-1-pyridin-4-yl-propenone], the “Mean metabolized (%)” value in series [3] is 0%. Moreover, in series [2], the IC50 was 622 ± 39 nM.
Regarding `O=C(/C=C/c1ccc2ccccc2n1)c1ccnc(F)c1` [ACT-PFK-143, 1-(2-Fluoro-pyridin-4-yl)-3-quinolin-2-yl-propenone], the IC50 amounted to 654 ± 95 nM in [2], 4300 nM in the series on NCI-H1437, 2600 nM in the series with NCI-H82 and 1700 nM in the series with Jurkat.
Compound `O=C(/C=C/c1ccc2cccc(F)c2n1)c1ccncc1` [ACT-PFK-145, 3-(8-Fluoro-quinolin-2-yl)-1-pyridin-4-yl-propenone] showed a solubility at 24 h in series [1] of 100 µg/mL (≈ 359 µM). Besides, the “Mean metabolized (%)” value in series [3] stood at 0%. In addition, the IC50 in series [2] was determined as 294 ± 38 nM; with NCI-H1437, 4700 nM; in the series with NCI-H82, 1500 nM; with Jurkat, 900 nM.
Consider `Cc1cccc2ccc(/C=C/C(=O)c3ccncc3)nc12` [ACT-PFK-141, 3-(8-Methyl-quinolin-2-yl)-1-pyridin-4-yl-propenone], for which, in [1], the solubility at 24 h is 800 µg/mL (≈ 2920 µM). In addition, the “Mean metabolized (%)” value in [3] came out at 0%. Further, the IC50 in [2] amounted to 210 ± 51 nM; with NCI-H1437, 5400 nM; with NCI-H82 it was 1100 nM; in the series on Jurkat it was 900 nM.
Regarding `Cc1cccc2ccc(/C=C/C(=O)c3ccncc3)nc12` [PFK-141, HCl, 3-(8-Methyl-quinolin-2-yl)-1-pyridin-4-yl-propenone], the solubility in [4] (pH = 5) was determined as 1700 µg/mL; in series [4] (pH = 7) it was 1900 µg/mL.
As for `O=C(/C=C/c1ccc2cccc(O)c2n1)c1ccncc1` [PFK-070, HCl, 3-(8-Hydroxy-quinolin-2-yl)-1-pyridin-4-yl-propenone], the “Solubility stability, Amber Vials” value was 1000 µg/mL in [5] (0 hrs), “No change” in [5] (2 hrs), “No change” in series [5] (4 hrs) and “No change” in series [5] (8 hrs). Further, the “appearance of solution, Clear Vials” value in series [5] (2 hrs), in [5] (4 hrs) and in [5] (8 hrs) was “Change in color” throughout. In [5] (Cremophor:EtOH:Saline solution, aqueous with cosolvent or surfactant or cyclodextrin, kinetic from dmso stock, 0 hrs), this compound showed a solubility at 0 h of 1000 µg/mL. Besides, in [5] (Cremophor:EtOH:Saline solution, aqueous with cosolvent or surfactant or cyclodextrin, kinetic from dmso stock, 2 hrs), the solubility at 2 h worked out at 900 µg/mL. In addition, the solubility at 4 h in series [5] (Cremophor:EtOH:Saline solution, aqueous with cosolvent or surfactant or cyclodextrin, kinetic from dmso stock, 4 hrs) was found to be 800 µg/mL. In addition, the solubility at 8 h in series [5] (Cremophor:EtOH:Saline solution, aqueous with cosolvent or surfactant or cyclodextrin, kinetic from dmso stock, 8 hrs) is < 700 µg/mL.
Turning to `Cc1ccc2ccc(/C=C/C(=O)c3ccncc3)nc2c1` [PFK-154, HCl, 3-(7-Methyl-quinolin-2-yl)-1-pyridin-4-yl-propenone], the figures for the solubility in series [4] (pH = 5) and in series [4] (pH = 7) were 2400 µg/mL and 3400 µg/mL, respectively.
Compound `CNc1cccc2ccc(/C=C/C(=O)c3ccncc3)nc12` [ACT-PFK-151, 3-(8-Methylamino-quinolin-2-yl)-1-pyridin-4-yl-propenone] registered a solubility at 24 h in [1] of 1900 µg/mL (≈ 6570 µM). For the same compound, the “Mean metabolized (%)” value in [3] is 0%. The IC50 in [2] is 289 ± 56 nM.
In the case of `O=C(/C=C/c1ccc2ccccc2n1)c1ccc(O)cc1` [ACT-PFK-087, 1-(4-Hydroxy-phenyl)-3-quinolin-2-yl-propenone], the 50% inhibitory concentration (IC50) in the series on Calu-6 is 1600 nM; in the series with U937 it was 1300 nM; in the series with NCI-H82, 2300 nM; in the series with Jurkat it was 3700 nM.
